Measurements: the supplement of paper PMC10307832

What was measured:
Assay in all cases: relative viability (nuclei count vs DMSO), 5 days (fraction); higher = more cells survive
Bortezomib + Phenformin = compound: CC(C)C[C@H](NC(=O)[C@H](Cc1ccccc1)NC(=O)c1cnccn1)B(O)O [Bortezomib] + N=C(N)NC(=N)NCCc1ccccc1 [Phenformin] (partner 250 µM)
Procedure, shortened: (§1)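 Each reported value is a median over duplicate plates. It expresses relative viability: treated-well nuclei count divided by vehicle-well nuclei count. Lung cancer cell lines in 1536-well plates were dosed by pin tool a day after seeding, alone with one drug or with a fixed anchor-drug dose plus five library-drug doses (not always all listed) in √10 steps, and nuclei were counted after 5 days.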

[1] = compound: CC1=CC(=NN1)NC2=CC(=NC(=N2)/C=C/C3=CC=CC=C3)N4CCN(CC4)C + Cc1nc(Nc2ncc(C(=O)Nc3c(C)cccc3Cl)s2)cc(N2CCN(CCO)CC2)n1 [Dasatinib] (partner 0.075 µM)
Procedure, shortened: as §1

Obatoclax + Foretinib = compound: COC1=CC(c2cc3ccccc3[nH]2)=N/C1=C\c1[nH]c(C)cc1C [Obatoclax] + COc1cc2c(Oc3ccc(NC(=O)C4(C(=O)Nc5ccc(F)cc5)CC4)cc3F)ccnc2cc1OCCCN1CCOCC1 [Foretinib] (partner 0.25 µM)
Procedure, shortened: as §1

Obatoclax + Decitabine = compound: COC1=CC(c2cc3ccccc3[nH]2)=N/C1=C\c1[nH]c(C)cc1C [Obatoclax] + Nc1ncn([C@H]2C[C@H](O)[C@@H](CO)O2)c(=O)n1 [Decitabine] (partner 2 µM)
Procedure, shortened: as §1

NCI-H1666
relative viability (Bortezomib + Phenformin; first compound 0.0002 µM): 0.533
relative viability (Bortezomib + Phenformin; first compound 0.000632 µM): 0.544
relative viability (Bortezomib + Phenformin; first compound 0.002 µM): 0.559
relative viability (Bortezomib + Phenformin; first compound 0.006325 µM): 0.365
relative viability (Bortezomib + Phenformin; first compound 0.02 µM): 0.307
relative viability ([1]; first compound 0.08 µM): 0.787
relative viability ([1]; first compound 0.253 µM): 0.874
relative viability ([1]; first compound 0.8 µM): 0.778
relative viability ([1]; first compound 2.53 µM): 0.659
relative viability ([1]; first compound 8 µM): 0.294
relative viability (Obatoclax + Foretinib; first compound 0.01 µM): 0.952
relative viability (Obatoclax + Foretinib; first compound 0.03162 µM): 0.989
relative viability (Obatoclax + Foretinib; first compound 0.1 µM): 0.959
relative viability (Obatoclax + Foretinib; first compound 0.3162 µM): 0.482
relative viability (Obatoclax + Foretinib; first compound 1 µM): 0.384
relative viability (Obatoclax + Decitabine; first compound 0.01 µM): 0.731
relative viability (Obatoclax + Decitabine; first compound 0.03162 µM): 0.688
relative viability (Obatoclax + Decitabine; first compound 0.1 µM): 0.68
relative viability (Obatoclax + Decitabine; first compound 0.3162 µM): 0.586
relative viability (Obatoclax + Decitabine; first compound 1 µM): 0.691

NCI-H1437
relative viability (Bortezomib + Phenformin; first compound 0.0002 µM): 0.385
relative viability (Bortezomib + Phenformin; first compound 0.000632 µM): 0.28
relative viability (Bortezomib + Phenformin; first compound 0.002 µM): 0.278
relative viability (Bortezomib + Phenformin; first compound 0.006325 µM): 0.129
relative viability (Bortezomib + Phenformin; first compound 0.02 µM): 0.133
relative viability ([1]; first compound 0.08 µM): 0.377
relative viability ([1]; first compound 0.253 µM): 0.455
relative viability ([1]; first compound 0.8 µM): 0.404
relative viability ([1]; first compound 2.53 µM): 0.273
relative viability ([1]; first compound 8 µM): 0.0967
relative viability (Obatoclax + Foretinib; first compound 0.01 µM): 1.22
relative viability (Obatoclax + Foretinib; first compound 0.03162 µM): 1.28
relative viability (Obatoclax + Foretinib; first compound 0.1 µM): 1.21
relative viability (Obatoclax + Foretinib; first compound 0.3162 µM): 1.16
relative viability (Obatoclax + Foretinib; first compound 1 µM): 1.25
relative viability (Obatoclax + Decitabine; first compound 0.01 µM): 0.626
relative viability (Obatoclax + Decitabine; first compound 0.03162 µM): 0.426
relative viability (Obatoclax + Decitabine; first compound 0.1 µM): 0.601
relative viability (Obatoclax + Decitabine; first compound 0.3162 µM): 0.537
relative viability (Obatoclax + Decitabine; first compound 1 µM): 0.43

NCI-H1944
relative viability (Bortezomib + Phenformin; first compound 0.0002 µM): 0.198
relative viability (Bortezomib + Phenformin; first compound 0.000632 µM): 0.185
relative viability (Bortezomib + Phenformin; first compound 0.002 µM): 0.213
relative viability (Bortezomib + Phenformin; first compound 0.006325 µM): 0.201
relative viability (Bortezomib + Phenformin; first compound 0.02 µM): 0.155
relative viability ([1]; first compound 0.08 µM): 0.23
relative viability ([1]; first compound 0.253 µM): 0.209
relative viability ([1]; first compound 0.8 µM): 0.197
relative viability ([1]; first compound 2.53 µM): 0.147
relative viability ([1]; first compound 8 µM): 0.107
relative viability (Obatoclax + Foretinib; first compound 0.01 µM): 0.877
relative viability (Obatoclax + Foretinib; first compound 0.03162 µM): 0.772
relative viability (Obatoclax + Foretinib; first compound 0.1 µM): 0.894
relative viability (Obatoclax + Foretinib; first compound 0.3162 µM): 0.942
relative viability (Obatoclax + Foretinib; first compound 1 µM): 0.933
relative viability (Obatoclax + Decitabine; first compound 0.01 µM): 0.429
relative viability (Obatoclax + Decitabine; first compound 0.03162 µM): 0.42
relative viability (Obatoclax + Decitabine; first compound 0.1 µM): 0.464
relative viability (Obatoclax + Decitabine; first compound 0.3162 µM): 0.431
relative viability (Obatoclax + Decitabine; first compound 1 µM): 0.388

SK-MES-1
relative viability (Bortezomib + Phenformin; first compound 0.0002 µM): 0.648
relative viability (Bortezomib + Phenformin; first compound 0.000632 µM): 0.6
relative viability (Bortezomib + Phenformin; first compound 0.002 µM): 0.608
relative viability (Bortezomib + Phenformin; first compound 0.006325 µM): 0.269
relative viability (Bortezomib + Phenformin; first compound 0.02 µM): 0.15
relative viability ([1]; first compound 0.08 µM): 0.479
relative viability ([1]; first compound 0.253 µM): 0.322
relative viability ([1]; first compound 0.8 µM): 0.493
relative viability ([1]; first compound 2.53 µM): 0.139
relative viability ([1]; first compound 8 µM): 0.0976
relative viability (Obatoclax + Foretinib; first compound 0.01 µM): 0.935
relative viability (Obatoclax + Foretinib; first compound 0.03162 µM): 1.03
relative viability (Obatoclax + Foretinib; first compound 0.1 µM): 0.831
relative viability (Obatoclax + Foretinib; first compound 0.3162 µM): 0.833
relative viability (Obatoclax + Foretinib; first compound 1 µM): 0.867
relative viability (Obatoclax + Decitabine; first compound 0.01 µM): 0.366
relative viability (Obatoclax + Decitabine; first compound 0.03162 µM): 0.374
relative viability (Obatoclax + Decitabine; first compound 0.1 µM): 0.468
relative viability (Obatoclax + Decitabine; first compound 0.3162 µM): 0.233
relative viability (Obatoclax + Decitabine; first compound 1 µM): 0.202

NCI-H1355
relative viability (Bortezomib + Phenformin; first compound 0.0002 µM): 0.446
relative viability (Bortezomib + Phenformin; first compound 0.000632 µM): 0.414
relative viability (Bortezomib + Phenformin; first compound 0.002 µM): 0.493
relative viability (Bortezomib + Phenformin; first compound 0.006325 µM): 0.381
relative viability (Bortezomib + Phenformin; first compound 0.02 µM): 0.176
relative viability ([1]; first compound 0.08 µM): 0.723
relative viability ([1]; first compound 0.253 µM): 0.727
relative viability ([1]; first compound 0.8 µM): 0.684
relative viability ([1]; first compound 2.53 µM): 0.248
relative viability ([1]; first compound 8 µM): 0.121
relative viability (Obatoclax + Foretinib; first compound 0.01 µM): 1.04
relative viability (Obatoclax + Foretinib; first compound 0.03162 µM): 0.936
relative viability (Obatoclax + Foretinib; first compound 0.1 µM): 0.986
relative viability (Obatoclax + Foretinib; first compound 0.3162 µM): 0.94
relative viability (Obatoclax + Foretinib; first compound 1 µM): 0.529
relative viability (Obatoclax + Decitabine; first compound 0.01 µM): 0.368
relative viability (Obatoclax + Decitabine; first compound 0.03162 µM): 0.347
relative viability (Obatoclax + Decitabine; first compound 0.1 µM): 0.338
relative viability (Obatoclax + Decitabine; first compound 0.3162 µM): 0.334
relative viability (Obatoclax + Decitabine; first compound 1 µM): 0.335

SK-LU-1
relative viability (Bortezomib + Phenformin; first compound 0.0002 µM): 0.561
relative viability (Bortezomib + Phenformin; first compound 0.000632 µM): 0.499
relative viability (Bortezomib + Phenformin; first compound 0.002 µM): 0.467
relative viability (Bortezomib + Phenformin; first compound 0.006325 µM): 0.122
relative viability (Bortezomib + Phenformin; first compound 0.02 µM): 0.0951
relative viability ([1]; first compound 0.08 µM): 0.174
relative viability ([1]; first compound 0.253 µM): 0.171
relative viability ([1]; first compound 0.8 µM): 0.156
relative viability ([1]; first compound 2.53 µM): 0.108
relative viability ([1]; first compound 8 µM): 0.0621
relative viability (Obatoclax + Foretinib; first compound 0.01 µM): 0.775
relative viability (Obatoclax + Foretinib; first compound 0.03162 µM): 0.855
relative viability (Obatoclax + Foretinib; first compound 0.1 µM): 0.804
relative viability (Obatoclax + Foretinib; first compound 0.3162 µM): 0.409
relative viability (Obatoclax + Foretinib; first compound 1 µM): 0.357
relative viability (Obatoclax + Decitabine; first compound 0.01 µM): 0.682
relative viability (Obatoclax + Decitabine; first compound 0.03162 µM): 0.567
relative viability (Obatoclax + Decitabine; first compound 0.1 µM): 0.454
relative viability (Obatoclax + Decitabine; first compound 0.3162 µM): 0.478
relative viability (Obatoclax + Decitabine; first compound 1 µM): 0.363

NCI-H2342
relative viability (Bortezomib + Phenformin; first compound 0.0002 µM): 0.653
relative viability (Bortezomib + Phenformin; first compound 0.000632 µM): 0.508
relative viability (Bortezomib + Phenformin; first compound 0.002 µM): 0.574
relative viability (Bortezomib + Phenformin; first compound 0.006325 µM): 0.714
relative viability (Bortezomib + Phenformin; first compound 0.02 µM): 0.566
relative viability ([1]; first compound 0.08 µM): 0.314
relative viability ([1]; first compound 0.253 µM): 0.298
relative viability ([1]; first compound 0.8 µM): 0.322
relative viability ([1]; first compound 2.53 µM): 0.249
relative viability ([1]; first compound 8 µM): 0.218
relative viability (Obatoclax + Foretinib; first compound 0.01 µM): 1.05
relative viability (Obatoclax + Foretinib; first compound 0.03162 µM): 0.947
relative viability (Obatoclax + Foretinib; first compound 0.1 µM): 1.09
relative viability (Obatoclax + Foretinib; first compound 0.3162 µM): 1.04
relative viability (Obatoclax + Foretinib; first compound 1 µM): 1.03
relative viability (Obatoclax + Decitabine; first compound 0.01 µM): 0.724
relative viability (Obatoclax + Decitabine; first compound 0.03162 µM): 0.782
relative viability (Obatoclax + Decitabine; first compound 0.1 µM): 0.758
relative viability (Obatoclax + Decitabine; first compound 0.3162 µM): 0.732
relative viability (Obatoclax + Decitabine; first compound 1 µM): 0.812

NCI-H1793
relative viability (Bortezomib + Phenformin; first compound 0.0002 µM): 0.366
relative viability (Bortezomib + Phenformin; first compound 0.000632 µM): 0.242
relative viability (Bortezomib + Phenformin; first compound 0.002 µM): 0.368
relative viability (Bortezomib + Phenformin; first compound 0.006325 µM): 0.344
relative viability (Bortezomib + Phenformin; first compound 0.02 µM): 0.169
relative viability ([1]; first compound 0.08 µM): 0.379
relative viability ([1]; first compound 0.253 µM): 0.446
relative viability ([1]; first compound 0.8 µM): 0.365
relative viability ([1]; first compound 2.53 µM): 0.138
relative viability ([1]; first compound 8 µM): 0.0977
relative viability (Obatoclax + Foretinib; first compound 0.01 µM): 0.602
relative viability (Obatoclax + Foretinib; first compound 0.03162 µM): 0.743
relative viability (Obatoclax + Foretinib; first compound 0.1 µM): 0.758
relative viability (Obatoclax + Foretinib; first compound 0.3162 µM): 0.609
relative viability (Obatoclax + Foretinib; first compound 1 µM): 0.675
relative viability (Obatoclax + Decitabine; first compound 0.01 µM): 0.578
relative viability (Obatoclax + Decitabine; first compound 0.03162 µM): 0.47
relative viability (Obatoclax + Decitabine; first compound 0.1 µM): 0.519
relative viability (Obatoclax + Decitabine; first compound 0.3162 µM): 0.421
relative viability (Obatoclax + Decitabine; first compound 1 µM): 0.415
